This is an account of results in patent publication US20100190727A1, “USE OF MONOSACCHARIDES AND COMPOSITION THEREFOR” (L'OREAL, priority 2008, published 2010).

Assay [1] relates to dermal fibroblasts of the reconstructed skin. In words: Proliferation of dermal fibroblasts in whole reconstructed skin (propidium iodide nuclei count on frozen sections). The following applies: 5 mM, 48 hours of treatment, reconstructed skin versus control skin. Type of assay: cell-based, human. The source says:
Rhamnose was studied on a model of whole reconstructed skin in order to measure its anti-ageing efficacy on the dermal compartment.
(§1) Briefly, the model of reconstructed skin used is that described by Bell et al. (Bell E. et al., The reconstitution of living skin, J. Invest. Dermatol., 1983, July; 81): it includes a dermal equivalent on which is reconstructed a multistratified epidermis; the dermal equivalent is manufactured from acid-soluble collagen, culture medium containing serum and normal adult human fibroblasts. After 5 days of shrinkage, this equivalent is inoculated with keratinocytes and then cultured for 6 days in immersion and for 7 days in emersion in order to obtain a multistratified and differentiated epidermis having a horny layer.
The reconstructed skin is treated with 5 mM rhamnose for 2 days and 5 days in the culture medium; after the treatment, the reconstructed skins are included in Tissue Tek in order to produce frozen sections 7 μm thick with a cryostat. […] Three frozen sections are prepared at random on each reconstructed skin; on each section, two microscopic fields (25× objective lens) are analysed by fluorescence microscopy and photographed. The dermal fibroblasts are thus counted for each reconstructed skin on six images in total representing the six microscopic fields considered. […]

The next assay deals with type I procollagen. The assay can be described thus: Synthesis of procollagen 1 in the dermis of reconstructed skin (indirect immunofluorescence). Type of assay: cell-based, human. The note with it: for procollagen 1 synthesis: reconstructed skin.
From the text: as §1
Conventional detection via indirect immunofluorescence of type I procollagen in the dermis of the reconstructed skin was also performed on other series of frozen sections (anti-procoll 1 antibody (MAB 1912 Millipore)+FTIC-coupled conjugate (112-095-068 Jackson Immunoresearch)). In order to obtain bearings within the cutaneous architecture during the microscopic examination of the sections, the cell nuclei of the keratinocytes and fibroblasts are localized by staining them with propidium iodide, as described above. Three frozen sections are prepared at random on each reconstructed skin and on each section, and two microscopic fields (25× objective lens) are analysed by fluorescence microscopy and photographed. The levels of fluorescence proportional to the amount of type I procollagen are compared between the control skin and the skin treated with rhamnose.

Assay [2] has as its system keratinocytes (HaCat line). The assay can be described thus: Proliferation of keratinocytes (HaCat line) in culture medium deficient in growth factors; Cyquant, Nile red and XTT probes. Type of assay: cell-based. On the procedure:
The keratinocytes (HaCat line) are cultured under two conditions: whole defined culture medium (standard condition) and culture medium deficient in growth factors. This deficient medium gives rise to a controlled delay in cell proliferation. Under these conditions, it is then possible to measure the effects of compounds capable of compensating for the deficiency in growth factors of the culture medium and thus of relaunching the cell multiplication and/or of stimulating cell metabolism.
The keratinocyte proliferation is measured by means of three markers on the same cell population: the level of DNA, which is proportional to the number of cells (Cyquant probe), the level of constituent polar lipids of cell membranes (Nile red probe) and the mitochondrial respiration, which reflects the general cell metabolism (XTT probe).
In general terms: Formazan colour is commonly taken as a measure of viable cells.

[3] abbreviates: 1 mM, medium depleted in growth factors, versus untreated control.

As for `C[C@H](O)[C@H](O)[C@@H](O)[C@@H](O)C=O` [rhamnose], the “growth of the dermal fibroblasts” value in assay [1] is recorded as “induces stimulation of growth”. Also, the “green fluorescence proportional to the amount of type I procollagen” value with type I procollagen (1 mM for 120 hours, reconstructed skin versus control skin) is recorded as “marked increase in green fluorescence”. In the assay on type I procollagen (1 mM), the “procollagen 1 synthesis” value is listed as “stimulation of procollagen 1 synthesis”. For the same compound, the “procollagen 1 synthesis” value in the assay on type I procollagen (5 mM) is “stimulation of procollagen 1 synthesis”. Moreover, in assay [2] (500 μM, medium depleted in growth factors), the “efficacy on keratinocyte proliferation markers” value was “already show efficacy”. In assay [2] (setting [3]), the “level of DNA (Cyquant)” value is “significantly increased”, the “level of polar lipids (Nile red signal)” value was “significantly increased” and the “mitochondrial respiration (XTT signal)” value is on record as “significantly increased”. In addition, in assay [2] (HaCat keratinocytes cultured in medium depleted in growth factors, versus untreated control), the keratinocyte proliferation entry is listed as “activate keratinocyte proliferation”.
